Data set [1] concerns 3243G High cells. Briefly: Mitochondrial autophagy (LC3 / cytochrome C immunostaining). Conditions: 100 nM, 52 hours after treatment. In kind it is cell-based, human. The protocol:
In order to study whether the decrease in the number of mutant mtDNA by PIP-TPP was caused by mitochondrial autophagy reaction, the following experiment was conducted. The mtDNA mutation cell line 3243G High cells were inoculated at 2×10^4 cells/dish to a 35 mm glass base dish (IWAKI), cultured for 24 hours, and then treated with the compound (final concentration: 100 nM). 52 hours after treatment, the cells were fixed with 4% paraformaldehyde (PFA)/PBS at room temperature for 30 minutes. The cells thus fixed were washed with PBS and blocked with 10% FBS/0.1% Triton X100/TBS (TBST) for 10 minutes. TBS is a mixed solution of sodium chloride (final concentration: […]) and Tris (pH 7.4) (final concentration: […]). After the completion of blocking, the cells were reacted overnight at 4° C. with primary antibodies diluted with TBST. The primary antibodies used were a rabbit anti-LC3 antibody (Cell Signaling Technology, Inc.) diluted at 1:200, and a mouse anti-cytochrome C antibody (Thermo Fisher Scientific, USA) diluted at 1:500. After the completion of reaction with the primary antibodies, the cells were washed three times with TBS and reacted for 15 minutes with secondary antibodies diluted with TBST, i.e., Goat anti Rabbit Oregon Green 488 (Invitrogen) diluted at 1:1000 and Goat anti Mouse Alexa Fluor 647 (Invitrogen) diluted at 1:1000. […]

The subject of data set [2] is 3243G Low cells. Nature of the data set: Total mitochondrial DNA copy number by PCR of COII gene. In kind it is cell-based, human. Conditions: 1 μM and 5 μM, 48- or 63-day treatment. The protocol:
(§1) The 3243G Low cells were inoculated at 2×10^4 cells/well to a 35 mm dish (Falcon, USA), cultured for 24 hours, and then treated with CCC019-TPP (final concentration: 1 μM and 5 μM). The medium was replaced once two days, and CCC019-TPP was continuously administered. Further, 48 and 63 days later, DNA was extracted using Allprep DNA/RNA Mini Kit (QIAGEN, Germany) according to the instruction manual. The yield of the DNA thus extracted was measured using NANODROP 2000c (Thermo Fisher Scientific). DNA samples were prepared, and PCR reaction and analysis were conducted. The primers and reaction conditions used are shown below.
(§2) The reaction conditions were as follows.
After the completion of PCR reaction, PCR products were electrophoresed on 2% agarose gel and then stained with ethidium bromide to detect bands of the PCR products. The bands were quantified with analytical software (Image J).
In order to predict the total copy number of mtDNA in the 3243G Low cells treated with CCC019-TPP for 48 or 63 days, COII gene constituting mitochondrial respiratory chain complex IV was subjected to PCR.

For data set [3], the system named is 3243G Low cells. Nature of the data set: Ratio between normal mtDNA and mutant mtDNA by PCR-RFLP. The conditions noted are these: 1 μM and 5 μM, 48- or 63-day treatment. In kind it is cell-based, human. The protocol: as §1, with “(Falcon),” for “(Falcon, USA),”, “(QIAGEN)” for “(QIAGEN, Germany)”, “2000™” for “2000c”, “was” for “and analysis were”
as §2
PCR products were treated with restriction enzyme ApaI as described below, and analyzed. The PCR products were purified using QIAquick PCR Purification Kit (QIAGEN) according to the instruction manual. After the purification, the yield of DNA was measured using NANODROP 2000c (Thermo Fisher Scientific). After the measurement, reaction products amplified in PCR System 9700 (Applied Biosystems, USA) GeneAmp(R) were treated with restriction enzyme Apal at 37° C. for 5 hours. After the completion of reaction, 15 ng of samples was electrophoresed on 2% agarose gel and then stained with ethidium bromide to detect bands of the PCR products. The bands were quantified with analytical software (Image J). […]

Data set [4] has as its system A549 cells. Briefly: Synthetic lethality: cell morphology with CCC021-TPP and ABT-199 or A1155463. The data set is classed as cell-based. Conditions: single administration: 20 μM CCC021-TPP, 10 μM ABT-199, 10 μM A1155463; 4 days. The protocol:
It was confirmed with the BCL2- and BCL-XL-specific inhibitor that the suppression of cell death in the cellular senescence of the A549 cells was presumably due to the BCL pathway. The type of BCL pathway inhibition, combined use of which could induce cell death (apoptosis) in the senescent cells of the A549 cells was studied. Five hundred A549 cells were inoculated to a 96-well plate and cultured for 24 hours. Then, change in cell morphology was photographed under an optical microscope either without administration (i.e., after DMSO treatment) or 4 days after treatment with 20 μM CCC021-TPP and 10 μM BCL2 inhibitor ABT-199 (compound venetoclax of No. 33 in FIG. 55-10) or 10 μM BCL-XL inhibitor A1155463 (compound of No. 16 in FIG. 55-6) each alone, or treatment by combined use of the same concentration of CCC021-TPP with the same concentration of ABT-199 or A1155463.

Data set [5] has as its system A549 cells. Briefly: Synthetic lethality: cell morphology with CCC021-TPP and ABT-263. In kind it is cell-based. Conditions: each used alone: 20 μM CCC021-TPP, 10 μM ABT-263; days 2 and 4. The text has this:
Since the suppression of cell death in the cellular senescence of the A549 cells was presumably due to the BCL pathway, it was believed that the apoptosis of cells whose cellular senescence was evoked by CCC021-TPP could be induced by combined use with ABT-263 (Cayman Chemical Company) serving as a senolytic drug and a BCL pathway inhibitor. Thus, the possibility of inducing the cell death of senescent cells by CCC021-TPP treatment and combined use with the BCL2/BCL-XL inhibitor ABT-263 was observed under an optical microscope to observe change in cell morphology. Five hundred A549 cells were inoculated to a 96-well plate, cultured for 24 hours, and then observed over time under an optical microscope either without administration or after administration of 20 μM CCC021-TPP and 10 μM ABT-263 each used alone or used concurrently, and cell morphology was photographed on days 2 and 4.

The nature of data set [6]: Skin penetrability confirmation experiment (anti-TPP immunohistochemical staining). The data set is classed as in vivo, mice ICR. Conditions: 18 hours. The protocol: Outbred mice ICR were purchased from Oriental Yeast Co., Ltd. The experiment was conducted by the administration of linear-chain PIP-TPP (CCC149-TPP) having a molecular weight of 1274.7 to the mouse back. The back skin of each 5-week-old ICR mouse was shaved. After confirmation that the hair growth cycle was not reached, DMSO containing no PIP-TPP, and solutions of PIP-TPP (dissolved in DMSO, dissolved in 95% DMSO/5% laurocapram (transdermal absorption promoter) and dissolved in 95% DMSO/5% laurocapram 24 hours after stratum corneum removal) adjusted so as to attain 30 mg/cm^2 were applied to 4 locations, respectively, of the back as shown in FIG. 28 at the age of 6 weeks. 18 hours later, the mouse was euthanized, and skin tissues were obtained and fixed in 4% paraformaldehyde. Then, paraffin blocks were prepared and co-stained by immunohistochemical staining with an anti-TPP antibody and DAPI staining of the nucleus to test the skin penetrability of the drug into cells and subcutaneous tissues.

Data set [7] concerns C33A. Nature of the data set: WST cell proliferation assay of library compounds. The data set is classed as cell-based. Conditions: Homo sapiens, C-33-A, 120 h, 5 days. The protocol: (§3) This compound can recognize the T4216C mutation of mitochondrial ND1 gene, and a uterine cervical cancer cell line C33A has this mutation. Cell proliferation assay with wild-type HeLa cells, which is also a uterine cervical cancer cell line, was conducted in the same manner as in Example 1. 1000 cells were inoculated to a 96-well plate, and CCC1283-TPP was administered at 0.5, 1, 5, 10, and 20 μM. 5 days later, WST assay was conducted.
(§4) This compound can recognize the T4216C mutation of mitochondrial ND1 gene, and a uterine cervical cancer cell line C33A has this mutation. Cell proliferation assay with wild-type HeLa cells, which is also a uterine cervical cancer cell line, was conducted in the same manner as in Example 1. 1000 cells were inoculated to a 96-well plate, and CCCh531-TPP was administered at 0.5, 1, 5, 10, and 20 μM. 5 days later, WST assay was conducted.
(§5) Compound CCCh560-TPP with a decacyclic structure targeting the A8860G polymorphism of mitochondrial gene ATP6 found in human populations, not acquired mitochondrial mutations in somatic cells, was studied for whether the suppression of cell proliferation was also found by 5-day treatment with the compound for the mitochondrial DNA polymorphism in cancer cell lines C33A, HeLa, Siha, Caski, and ME180 having this polymorphism in homoplasmy and human nontumor skin-derived fibroblast HDF cells. For this purpose, cell proliferation assay was conducted in the same manner as in Example 1. 1000 cells were inoculated to a 96-well plate, and CCCh560-TPP was administered at 0.5, 1, 5, 10, and 20 μM. 5 days later, WST assay was conducted.

Data set [8] relates to HeLa cells. Briefly: WST cell proliferation assay of library compounds. The data set is classed as cell-based. Conditions: Homo sapiens, 120 h, 5 days. The protocol: as §3, §4, §5

As for `CC(=O)Nc1cn(C)c(C(=O)Nc2cn(C)c(C(=O)Nc3cn(C)c(C(=O)NCCC(=O)Nc4cc(C(=O)Nc5cc(C(=O)NCCCC(=O)Nc6cn(C)c(C(=O)Nc7cn(C)c(C(=O)Nc8cn(C)c(C(=O)NCCC(=O)Nc9cc(C(=O)Nc%10cc(C(=O)NCCC(=O)NCCCN(C)C)n(C)c%10)n(C)c9)n8)n7)n6)n(C)c5)n(C)c4)n3)n2)n1` [CCC018-TPP], the “colocalization of autophagic marker LC3 with mitochondria (mitophagy)” value in data set [1] is “colocalization of the autophagic effect with mitochondria was clearly observed”.
In the case of `CN(C)CCCNC(=O)CCNC(=O)c1nc(NC(=O)c2nc(NC(=O)CCNC(=O)c3cc(NC(=O)c4nc(NC(=O)c5nc(NC(=O)CCCNC(=O)c6cc(NC(=O)c7cc(NC(=O)c8nc(NC(=O)CCNC(=O)c9cc(NC(=O)c%10cc(NC(=O)CCNC(=O)CCCC[P+](c%11ccccc%11)(c%11ccccc%11)c%11ccccc%11)cn%10C)cn9C)cn8C)cn7C)cn6C)cn5C)cn4C)cn3C)cn2C)cn1C` [CCC019-TPP], in data set [2], the “total copy number of mtDNA” value is reported as “tendency to increase the total copy number of mtDNA”. Moreover, in data set [3], the “ratio between normal mtDNA and mutant mtDNA” value is “tendency to increase the proportion of wild-type mitochondrial DNA and decrease the proportion of mutant mitochondrial DNA”.
As to `CN(C)CC#Cc1ccc(OCCCc2sc(N3CCc4cccc(C(=O)Nc5nc6ccccc6s5)c4C3)nc2C(=O)O)c(F)c1` [A1155463, reference compound], the “cell death (morphology)” value in data set [4] is “Any finding indicating cell death was not obtained”.
Turning to `CC1(C)CCC(c2ccc(Cl)cc2)=C(CN2CCN(c3ccc(C(=O)NS(=O)(=O)c4ccc(N[C@H](CCN5CCOCC5)CSc5ccccc5)c(S(=O)(=O)C(F)(F)F)c4)cc3)CC2)C1` [ABT-263, Navitoclax (ABT-263), reference compound], in data set [5], the “cells that underwent apoptosis (morphology)” value is recorded as “not detected”.
With `CN(C)CCCNC(=O)CCNC(=O)c1cc(NC(=O)c2nc(NC(=O)CCNC(=O)c3nc(NC(=O)c4cc(NC(=O)c5nc(NC(=O)CCNC(=O)CCCC[P+](c6ccccc6)(c6ccccc6)c6ccccc6)cn5C)cn4C)cn3C)cn2C)cn1C` [CCC149-TPP], the “skin penetrability (anti-TPP stain)” value in data set [6] (95% DMSO/5% laurocapram (transdermal absorption promoter)) is “stain of TPP was found in the perikaryon of subcutaneous tissues”; in data set [6] (applied to back skin, dissolved in DMSO), “present in skin basement membrane cells”; in data set [6] (stratum corneum removal and 95% DMSO/5% laurocapram), “more clearly found into the subcutaneous tissues and muscular coat”.
For the molecule `CN(C)CCCNC(=O)CCNC(=O)c1cc(NC(=O)c2cc(NC(=O)c3nc(NC(=O)CCNC(=O)c4cc(NC(=O)c5cc(NC(=O)CCCNC(=O)c6nc(NC(=O)c7cc(NC(=O)CCNC(=O)c8cc(NC(=O)c9cc(NC(=O)c%10nc(NC(=O)CCNC(=O)CC[P+](c%11ccccc%11)(c%11ccccc%11)c%11ccccc%11)cn%10C)cn9C)cn8C)cn7C)cn6C)cn5C)cn4C)cn3C)cn2C)cn1C` [CCCh531-TPP], the figures for the IC50 in data set [7] and in data set [8] were 3.34 µM and 11.8 µM, respectively.

One may read the IC50 as the midpoint of a concentration-inhibition curve. A high value points to weaker potency in that assay.

These data come from US20220193241A1, “AGENT TARGETING DOUBLE-MEMBRANE ORGANELLE DNA” (CHIBA-PREFECTURE, priority 2019, published 2022).
